The source of these data is PMC4599563 (ACS Medicinal Chemistry Letters, 2015).

This assay concerns the target mouse SR-BI (Mus musculus, UniProt Q61009). The assay can be described thus: [3H]cholesteryl ester uptake assay. The format is cell-based.

The structures appear in SMILES notation.

Chain of mouse SR-BI (Q61009 whole entry): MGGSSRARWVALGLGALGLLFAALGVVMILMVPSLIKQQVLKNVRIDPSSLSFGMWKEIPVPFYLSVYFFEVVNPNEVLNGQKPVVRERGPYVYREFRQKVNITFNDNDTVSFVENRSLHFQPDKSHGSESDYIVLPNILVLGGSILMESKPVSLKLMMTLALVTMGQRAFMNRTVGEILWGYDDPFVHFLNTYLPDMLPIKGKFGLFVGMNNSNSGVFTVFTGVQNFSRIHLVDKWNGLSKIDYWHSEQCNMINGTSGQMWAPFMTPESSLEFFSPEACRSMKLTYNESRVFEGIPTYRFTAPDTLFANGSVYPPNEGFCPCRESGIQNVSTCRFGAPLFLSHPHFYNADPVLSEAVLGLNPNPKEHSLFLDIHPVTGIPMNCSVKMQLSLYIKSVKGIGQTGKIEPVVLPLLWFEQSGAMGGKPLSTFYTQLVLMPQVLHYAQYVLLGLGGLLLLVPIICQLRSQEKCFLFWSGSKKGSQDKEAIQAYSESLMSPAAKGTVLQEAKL

What is called IC50 is the concentration that inhibits the measured activity by half. In the case of `COc1c(NC(=O)C(=O)c2ccc(OCCN3CCOCC3)c3ccccc23)cc(C(C)(C)C)cc1NS(C)(=O)=O` [ITX-5061], half-maximal inhibition (IC50) required 0.94 µM. This lies in the sub-micromolar range.
